“And” between values parts separate entries of the source, which are not always exact repeats. Equal values may be shown once. Values belong to the compound of their own block, whether it stands above or below them.
Experiments:
[1] = tested on: A549 human lung carcinoma cell line; assay: [H-3]-D-Tyrosine uptake competition in A549 cells; type: cell-based; conditions: 30 min, 100 μM competitor, 2.8% without competitor
Protocol: Cells were seeded 1-2 days prior to the assay and grown until sub-confluency in 48 well plates. Prior to the assay the cell culture medium was removed and the cells were washed with phosphate buffered saline (PBS)+0.1% Bovine serum albumin (BSA). After adding the assay buffer (PBS+0.1% BSA), 37 KBq of the radiotracer [H-3]-D-Tyrosine was added immediately and was incubated with cells at 37° C. in a humidified atmosphere containing 5% CO2 for 30 min. For investigation of transporter characteristics and competitions, the cells were coincubated with 100 μM F-DOPA or compound 29 (FCBT) for 30 min to monitor radioactivity uptake. To stop tracer uptake the incubation buffer was removed after 30 min, the cells were washed and lysed with 1 M sodium hydroxide. Subsequently the amount of radioactivity in the cell lysate was determined in a scintillation counter.
(§1) Aliquots of the applied tracer amount were measured in a gamma counter to determine the total amount in counts per minute (cpm) together with the samples to correct for tracer decay. Cell numbers per well were determined after detaching cells by trypsinization in 3 wells prior to start of the assay and counted in cell chamber under a microscope. The mean of cells was calculated. To compare tracer uptake between different studies the cell number was normalized to 100,000 cells.

LAT1 = target: T1, LAT1 (Homo sapiens, UniProt Q01650); assay: [H-3]-D-Tyrosine efflux experiment in A549 cells (LAT1 substrate test); type: cell-based; conditions: A549 cells preloaded with [H-3]-D-Tyrosine, 100 μM cold compound, 0.7% without compound
T1 construct: endogenous in cells; host or cells: A549 human lung carcinoma cells
Protocol: To study if the compounds are transported by LAT1, the cells were incubated with 37 kBq of the radiotracer [H-3]-D-Tyrosine and was incubated with cells at 37° C. in a humidified atmosphere containing 5% CO2 for 30 min. Then the cells were washed with PBS and fresh assay buffer was added to the cells containing 100 μM concentration of cold compound and the cells were incubated for another 30 min. To stop tracer efflux the incubation buffer was removed after 30 min, the cells were washed and lysed with 1 M sodium hydroxide. Subsequently the amount of radioactivity in the cell lysate was determined in a scintillation counter.
as §1

[2] = In vitro plasma stability, human plasma; type: in vitro ADME; conditions: for MEAN [%] / % v. 0 h: human female plasma, 0.3 μM; for % v. 0 h: single values
Protocol: (§2) This investigation determines the stability of test compound in plasma of different species. […] Samples were freezed at −20° C. overnight, subsequently centrifuged for 15 minutes at 3000 rpm and the supernatant was analyzed with an Agilent 1200 HPLC-system with LCMS/MS detection.
(§3) The stability of the test compound was quantified by comparison of the remaining amount at the different time points with the amount of the 0 min sample and is expressed in % of initial concentration.

[3] = In vitro plasma stability, rat plasma; type: in vitro ADME; conditions: 0.3 μM
Protocol: as §2, §3

rat hepatocytes = assay: In vitro metabolic stability in rat hepatocytes with calculation of hepatic in vivo blood clearance; type: in vitro ADME; conditions: male Wistar rat hepatocytes, 0.5x10^6 cells/ml, 1 μM test compound
Protocol: Hepatocytes from Han Wistar rats were isolated via a 2-step perfusion method. After perfusion, the liver was carefully removed from the rat: the liver capsule was opened and the hepatocytes were gently shaked out into a Petri dish with ice-cold WME. The resulting cell suspension was filtered through sterile gaze in 50 mL falcon tubes and centrifuged at 50×g for 3 min at room temperature. The cell pellet was resuspended in 30 mL WME and centrifuged through a Percoll® gradient for 2 times at 100×g. The hepatocytes were washed again with Williams' medium E (WME) and resuspended in medium containing 5% FCS. Cell viability was determined by trypan blue exclusion.
For the metabolic stability assay liver cells were distributed in WME containing 5% FCS to glas vials at a density of 0.5×10^6 vital cells/ml. The test compound was added to a final concentration of 1 μM. During incubation, the hepatocyte suspensions were continuously shaken and aliquots were taken at 2, 8, 16, 30, 45 and 60 min, to which equal volumes of cold methanol were immediately added. Samples were freezed at −20° C. overnight, subsequently centrifuged for 15 minutes at 3000 rpm and the supernatant was analyzed with an Agilent 1200 HPLC-system with LCMS/MS detection.
The half-life of a test compound was determined from the concentration-time plot. From the half-life the intrinsic clearances were calculated.

A549 cells = assay: Cell uptake of [18F] compound 32b into A549 cells; type: cell-based, human
Protocol: We studied the uptake of the radiolabeled [^18F] compound 32b into A549 cells, 90000 A549 cells were seeded per cavity of a 48 well incubation plate (Becton Dickinson; Cat. 353078) and incubated for 2 days in RPMI 1640 with GlutaMAX (Invitrogen; Cat. 31331) medium supplemented with 10% FCS in an incubator (37° C., 5% CO2). Cells were washed once with PBS and then incubated for 10-30 minutes at 37° C. in PBS with 0.25 MBq of compound 32b ([^18F] labeled). After incubation, the cells were washed once with cold PBS, lysed with 1M NaOH, and finally lysates were measured in a gamma counter.

T1 sequence (Q01650 whole entry): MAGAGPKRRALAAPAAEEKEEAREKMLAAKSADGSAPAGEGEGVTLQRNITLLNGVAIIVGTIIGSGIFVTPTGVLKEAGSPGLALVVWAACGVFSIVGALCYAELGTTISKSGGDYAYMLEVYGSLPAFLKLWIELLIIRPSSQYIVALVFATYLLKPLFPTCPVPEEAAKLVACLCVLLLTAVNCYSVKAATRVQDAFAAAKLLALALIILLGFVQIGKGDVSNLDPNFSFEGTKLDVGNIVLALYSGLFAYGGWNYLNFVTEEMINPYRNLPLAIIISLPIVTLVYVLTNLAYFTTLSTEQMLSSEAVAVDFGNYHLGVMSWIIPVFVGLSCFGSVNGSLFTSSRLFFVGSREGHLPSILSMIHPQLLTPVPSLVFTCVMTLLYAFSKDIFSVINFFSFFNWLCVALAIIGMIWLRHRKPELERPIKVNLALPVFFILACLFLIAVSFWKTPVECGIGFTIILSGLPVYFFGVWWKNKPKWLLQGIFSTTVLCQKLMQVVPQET
T1 sequence (P08195 102-630 partner): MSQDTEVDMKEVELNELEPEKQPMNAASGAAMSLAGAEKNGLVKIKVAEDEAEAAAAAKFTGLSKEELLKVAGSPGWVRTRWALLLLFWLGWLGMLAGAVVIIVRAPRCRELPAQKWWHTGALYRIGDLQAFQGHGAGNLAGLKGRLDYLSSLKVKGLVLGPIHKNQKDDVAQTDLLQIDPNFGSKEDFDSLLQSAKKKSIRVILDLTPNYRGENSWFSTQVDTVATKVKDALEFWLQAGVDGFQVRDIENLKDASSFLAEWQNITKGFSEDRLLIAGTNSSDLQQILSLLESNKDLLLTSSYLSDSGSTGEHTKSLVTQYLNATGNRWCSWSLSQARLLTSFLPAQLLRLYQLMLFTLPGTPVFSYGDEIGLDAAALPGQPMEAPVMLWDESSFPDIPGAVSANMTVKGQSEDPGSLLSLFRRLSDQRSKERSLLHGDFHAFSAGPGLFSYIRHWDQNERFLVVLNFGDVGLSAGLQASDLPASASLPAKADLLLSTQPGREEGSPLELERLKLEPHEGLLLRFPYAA

SMILES: N[C@@H](Cc1cc(O)c(O)cc1[18F])C(=O)O [F-DOPA, reference compound]
uptake of the applied [H-3]-D-Tyrosine with compound present in the assay buffer [1]: 1.8%
amount of D-Tyrosine which remained in the cell after 30 min (efflux) (LAT1): 0.11 % applied dose/100.000 cells

SMILES: N[C@@H](Cc1ccc(OCCF)cc1)C(=O)O [O-(2-[^19F]Fluoroethyl)-L-tyrosine, reference compound]
MEAN [%] ([2]; 1 min incubation): 100%
% v. 0 h ([2]; 1 min incubation, listed as FET): 101% and 99%
MEAN [%] ([2]; 30 min incubation): 103%
% v. 0 h ([2]; 30 min incubation, listed as FET): 101% and 105%
MEAN [%] ([2]; 60 min incubation): 50%
% v. 0 h ([2]; 60 min incubation, listed as FET): 52% and 49%
degradation in human plasma after 60 min [2]: 50%
MEAN [%] ([3]; rat male plasma, 1 min incubation): 100%
% v. 0 h ([3]; rat male plasma, 1 min incubation, single values, listed as FET): 92% and 108%
MEAN [%] ([3]; rat male plasma, 30 min incubation): 109%
% v. 0 h ([3]; rat male plasma, 30 min incubation, single values, listed as FET): 110% and 109%
MEAN [%] ([3]; rat male plasma, 60 min incubation): 119%
% v. 0 h ([3]; rat male plasma, 60 min incubation, single values, listed as FET): 120% and 118%

amount of D-Tyrosine which remained in the cell after 30 min (efflux) (LAT1): 0.08 % applied dose/100.000 cells
MEAN [%] ([2]; 2 min incubation): 100%
% v. 0 h ([2]; 2 min incubation, trifluoroacetate salt): 96% and 104%
MEAN [%] ([2]; 30 min incubation): 111%
% v. 0 h ([2]; 30 min incubation, trifluoroacetate salt): 121% and 100%
MEAN [%] ([2]; 60 min incubation): 104%
% v. 0 h ([2]; 60 min incubation, trifluoroacetate salt): 104% and 105%
degradation in human plasma after 60 min [2]: did not show any degradation
MEAN [%] ([3]; male, rat, 2 min): 100%
% v. 0 h ([3]; male, rat, 30 min): 124%
MEAN [%] ([3]; male, rat, 30 min): 124%
MEAN [%] ([3]; male, rat, 60 min): 133%
CL blood, ws, hep (rat hepatocytes): 7.17 mL/min/kg
SMILES: N[C@@H](Cc1ccc(O[C@H]2C[C@@H](F)C2)cc1)C(=O)O.O=C(O)C(F)(F)F [Compound 29, O-(cis-3-Fluorocyclobutyl)-L-tyrosine trifluoroacetate salt]
uptake of the applied [H-3]-D-Tyrosine with compound present in the assay buffer [1]: 1.1%

SMILES: N[C@@H](Cc1ccc(O[C@H]2C[C@@H]([18F])C2)cc1)C(=O)O [Compound 32b, O-(cis-3-[^18F]Fluorocyclobutyl)-L-tyrosine]
maximum uptake (A549 cells; A549 cells, after 30 min, 0.25 MBq in PBS, 37° C.): 5.87 % applied dose/10^6 cells
accumulation in tumor cells (A549 cells; all tested tumor cells): good accumulation
